Consider eleven compounds from patent US20240208992A1, “MACROCYCLES AS CFTR MODULATORS” (Idorsia Pharmaceuticals Ltd, priority 2021, published 2024).

In the test the target is human F508del-CFTR (Homo sapiens, UniProt P13569, DEL508-508). Nature of the test: F508del-CFTR cell surface expression (corrector activity), DiscoveRx ß-galactosidase complementation chemiluminescence assay in recombinant U2OS cell line.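 On all read-outs here: U2OS cells co-expressing ProLink-tagged F508del-CFTR and a membrane-anchored enzyme acceptor, where more surface CFTR restores β-galactosidase activity measured by chemiluminescence.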 The settings on record: U2OS cell line, 16h compound incubation; for pEC50: EC50, F508del-CFTR cell surface expression, geomean values; for Emax: U2OS, in relation to the Emax of the corrector lumacaftor (=100%), arithmetic mean values.
Sequence of human F508del-CFTR (P13569 with tags, fused parts or gaps DEL508-508): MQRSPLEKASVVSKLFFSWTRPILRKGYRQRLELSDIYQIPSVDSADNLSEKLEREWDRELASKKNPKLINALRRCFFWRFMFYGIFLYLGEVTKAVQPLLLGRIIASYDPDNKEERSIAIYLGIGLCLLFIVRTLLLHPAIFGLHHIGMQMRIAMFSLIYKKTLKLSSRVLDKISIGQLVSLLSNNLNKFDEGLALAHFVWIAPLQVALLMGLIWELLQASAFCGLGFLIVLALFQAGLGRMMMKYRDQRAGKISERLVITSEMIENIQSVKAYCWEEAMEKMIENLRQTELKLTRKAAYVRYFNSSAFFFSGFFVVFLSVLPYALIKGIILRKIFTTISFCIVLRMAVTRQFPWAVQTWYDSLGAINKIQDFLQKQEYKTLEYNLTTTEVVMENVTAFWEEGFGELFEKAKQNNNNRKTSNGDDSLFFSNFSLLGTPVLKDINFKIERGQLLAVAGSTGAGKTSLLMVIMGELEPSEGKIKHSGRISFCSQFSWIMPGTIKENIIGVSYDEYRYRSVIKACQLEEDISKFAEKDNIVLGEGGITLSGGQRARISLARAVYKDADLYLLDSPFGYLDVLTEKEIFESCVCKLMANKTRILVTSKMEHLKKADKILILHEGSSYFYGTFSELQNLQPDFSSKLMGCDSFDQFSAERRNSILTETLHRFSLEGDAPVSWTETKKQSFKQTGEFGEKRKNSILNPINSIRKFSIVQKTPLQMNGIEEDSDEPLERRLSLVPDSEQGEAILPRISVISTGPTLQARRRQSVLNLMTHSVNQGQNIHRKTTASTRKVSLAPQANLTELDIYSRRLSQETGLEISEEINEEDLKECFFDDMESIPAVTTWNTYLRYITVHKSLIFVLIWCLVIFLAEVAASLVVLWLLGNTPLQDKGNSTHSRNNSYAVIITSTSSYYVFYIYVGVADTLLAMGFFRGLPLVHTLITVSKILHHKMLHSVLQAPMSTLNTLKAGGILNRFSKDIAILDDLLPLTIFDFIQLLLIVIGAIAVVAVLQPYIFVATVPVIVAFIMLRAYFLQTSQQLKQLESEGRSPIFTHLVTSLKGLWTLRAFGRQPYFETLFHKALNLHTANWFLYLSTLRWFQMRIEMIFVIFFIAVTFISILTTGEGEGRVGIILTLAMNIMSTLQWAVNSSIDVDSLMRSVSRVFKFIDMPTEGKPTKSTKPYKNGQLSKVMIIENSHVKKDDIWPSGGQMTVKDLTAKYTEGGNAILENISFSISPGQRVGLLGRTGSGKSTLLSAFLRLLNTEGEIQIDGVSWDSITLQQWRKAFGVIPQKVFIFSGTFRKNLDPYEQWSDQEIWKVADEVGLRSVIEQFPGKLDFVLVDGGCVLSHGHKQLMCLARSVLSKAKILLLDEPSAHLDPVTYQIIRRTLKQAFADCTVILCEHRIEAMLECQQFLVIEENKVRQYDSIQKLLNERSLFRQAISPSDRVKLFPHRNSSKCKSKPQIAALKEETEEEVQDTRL

Structures are written as SMILES. pEC50: −log10 of the molar value.

What is called pEC50 is −log10 of the EC50, conventionally taken in molar units. The term Emax denotes the maximal effect, on the per cent scale that the assay sets. For the compound `Cc1cc(CCNC(=O)[C@@H]2CC(=O)N(C)[C@@H](CC(C)C)C(=O)N3CCCC[C@@H]3C(=O)N[C@H](Cc3ccccc3)COc3cnc4ccccc4c3C(=O)N2)on1` [Example 367, (9S,13S,19aR,22R)-22-benzyl-13-isobutyl-12-methyl-N-(2-(3-methylisoxazol-5-yl)ethyl)-7,11,14,20-tetraoxo-7,8,9,10,11,12,13,14,17,18,19,19a,20,21,22,23-hexadecahydro-16H-pyrido[2′,1′:6,7][1]oxa[4,7,10,14]tetraazacycloheptadecino[17,16-c]quinoline-9-carboxamide], the negative-log EC50 (pEC50) is 6.60 and the Emax came out at 321%.
The matching figures for `COc1cc(CCNC(=O)[C@@H]2CC(=O)N(C)[C@@H](CC(C)C)C(=O)N3CCCC[C@@H]3C(=O)N[C@H](Cc3ccccc3)COc3ccc4oc(C)nc4c3C(=O)N2)cc(OC)c1` [Example 368, (8S,12S,18aR,21R)-21-benzyl-N-(3,5-dimethoxyphenethyl)-12-isobutyl-4,11-dimethyl-6,10,13,19-tetraoxo-6,7,8,9,10,11,12,13,16,17,18,18a,19,20,21,22-hexadecahydro-15H-oxazolo[5′,4′:5,6]benzo[1,2-p]pyrido[2,1-f][1]oxa[4,7,10,14]tetraazacycloheptadecine-8-carboxamide]: 6.04 and 147%.
The matching figures for `COc1cccc(CCNC(=O)[C@@H]2CC(=O)N(C)[C@@H](CC(C)C)C(=O)N3CCN(C(=O)OCC(Cl)(Cl)Cl)C[C@@H]3C(=O)N[C@H](Cc3ccccc3)COc3ccc4ccccc4c3C(=O)N2)c1` [Example 369, 2,2,2-trichloroethyl (4aR,7R,18S,22S)-7-benzyl-22-isobutyl-18-((3-methoxyphenethyl)carbamoyl)-21-methyl-5,16,20,23-tetraoxo-1,2,4,4a,5,6,7,8,16,17,18,19,20,21,22,23-hexadecahydro-3H-naphtho[1,2-p]pyrazino[2,1-f][1]oxa[4,7,10,14]tetraazacycloheptadecine-3-carboxylate]: 6.97 and 243%.
The matching figures for `CC(C)C[C@H]1C(=O)N2CCOC[C@@H]2C(=O)N[C@H](Cc2ccccc2)COc2ccc3ccccc3c2C(=O)N[C@H](C(=O)NCCc2nc3c(s2)CCC3)CC(=O)N1C` [Example 370, (4aR,7R,18S,22S)-7-benzyl-N-(2-(5,6-dihydro-4H-cyclopenta[d]thiazol-2-yl)ethyl)-22-isobutyl-21-methyl-5,16,20,23-tetraoxo-1,2,4,4a,5,6,7,8,16,17,18,19,20,21,22,23-hexadecahydronaphtho[1,2-p][1,4]oxazino[3,4-f][1]oxa[4,7,10,14]tetraazacycloheptadecine-18-carboxamide]: 6.41 and 229%.
As to `CC(C)C[C@H]1C(=O)N2CCOC[C@@H]2C(=O)N[C@H](Cc2ccccc2)COc2ccc3ccccc3c2C(=O)N[C@H](C(=O)NCCc2cccc(OC(F)F)c2)CC(=O)N1C` [Example 371, (4aR,7R,18S,22S)-7-benzyl-N-(3-(difluoromethoxy)phenethyl)-22-isobutyl-21-methyl-5,16,20,23-tetraoxo-1,2,4,4a,5,6,7,8,16,17,18,19,20,21,22,23-hexadecahydronaphtho[1,2-p][1,4]oxazino[3,4-f][1]oxa[4,7,10,14]tetraazacycloheptadecine-18-carboxamide], the pEC50 is 6.65 and the Emax amounted to 180%.
The matching figures for `COc1cccc(CCNC(=O)[C@@H]2CC(=O)N(C)[C@@H](CC(C)C)C(=O)N3CCN(CC(C)C)C[C@@H]3C(=O)N[C@H](Cc3ccccc3)COc3cnc4ccccc4c3C(=O)N2)c1` [Example 372, (9S,13S,19aR,22R)-22-benzyl-13,18-diisobutyl-N-(3-methoxyphenethyl)-12-methyl-7,11,14,20-tetraoxo-7,8,9,10,11,12,13,14,17,18,19,19a,20,21,22,23-hexadecahydro-16H-pyrazino[2′,11:6,7][1]oxa[4,7,10,14]tetraazacycloheptadecino[17,16-c]quinoline-9-carboxamide]: 7.14 and 360%.
As to `COc1cccc(CCNC(=O)[C@@H]2CC(=O)N(C)[C@@H](CC(C)C)C(=O)N3CCN(CC(C)C)C[C@H]3C(=O)N[C@H](Cc3ccccc3)COc3cnc4ccccc4c3C(=O)N2)c1` [Example 373, (9S,13S,19aS,22R)-22-benzyl-13,18-diisobutyl-N-(3-methoxyphenethyl)-12-methyl-7,11,14,20-tetraoxo-7,8,9,10,11,12,13,14,17,18,19,19a,20,21,22,23-hexadecahydro-16H-pyrazino[2′,11:6,7][1]oxa[4,7,10,14]tetraazacycloheptadecino[17,16-c]quinoline-9-carboxamide], the pEC50 was 6.70 and the Emax amounted to 149%.
Turning to `COc1cccc(CCNC(=O)[C@@H]2CC(=O)N(C)[C@@H](CC(C)C)C(=O)N3CCN(C(C)C)C[C@@H]3C(=O)N[C@H](Cc3ccccc3)COc3cnc4ccccc4c3C(=O)N2)c1` [Example 374, (9S,13S,19aR,22R)-22-benzyl-13-isobutyl-18-isopropyl-N-(3-methoxyphenethyl)-12-methyl-7,11,14,20-tetraoxo-7,8,9,10,11,12,13,14,17,18,19,19a,20,21,22,23-hexadecahydro-16H-pyrazino[2′,1′:6,7][1]oxa[4,7,10,14]tetraazacycloheptadecino[17,16-c]quinoline-9-carboxamide], the negative logarithm of the EC50 (pEC50) was 6.99 and the maximal response (Emax) came out at 333%.
For `Cc1cc(CCNC(=O)[C@@H]2CC(=O)N(C)[C@@H](CC(C)C)C(=O)N3CCN(C(C)C)C[C@@H]3C(=O)N[C@H](Cc3ccccc3)COc3cnc4ccccc4c3C(=O)N2)on1` [Example 375, (9S,13S,19aR,22R)-22-benzyl-13-isobutyl-18-isopropyl-12-methyl-N-(2-(3-methylisoxazol-5-yl)ethyl)-7,11,14,20-tetraoxo-7,8,9,10,11,12,13,14,17,18,19,19a,20,21,22,23-hexadecahydro-16H-pyrazino[2′,1′:6,7][1]oxa[4,7,10,14]tetraazacycloheptadecino[17,16-c]quinoline-9-carboxamide], in that order: 6.34 and 316%.
The matching figures for `COc1cccc(CCNC(=O)[C@@H]2CC(=O)N(C)[C@@H](CC(C)C)C(=O)N3CC=CC[C@@H]3C(=O)N[C@H](Cc3ccccc3)COc3ccc4ccccc4c3C(=O)N2)c1` [Example 376, (4aR,7R,18S,22S)-7-benzyl-22-isobutyl-N-(3-methoxyphenethyl)-21-methyl-5,16,20,23-tetraoxo-4,4a,5,6,7,8,16,17,18,19,20,21,22,23-tetradecahydro-1H-naphtho[1,2-p]pyrido[2,1-f][1]oxa[4,7,10,14]tetraazacycloheptadecine-18-carboxamide]: 6.81 and 284%.
For `COc1cc(CCNC(=O)[C@@H]2CC(=O)N(C)[C@@H](CC(C)C)C(=O)N3CCCC[C@@H]3C(=O)N[C@H](Cc3ccccc3)COc3ccc4nc(C)n(C)c4c3C(=O)N2)cc(OC)c1` [Example 377, (8S,12S,18aR,21R)-21-benzyl-N-(3,5-dimethoxyphenethyl)-12-isobutyl-4,5,11-trimethyl-6,10,13,19-tetraoxo-6,7,8,9,10,11,12,13,16,17,18,18a,19,20,21,22-hexadecahydro-5H,15H-imidazo[4′,5′:5,6]benzo[1,2-p]pyrido[2,1-f][1]oxa[4,7,10,14]tetraazacycloheptadecine-8-carboxamide], in that order: 6.15 and 111%.
